Tests used:
[1] = system: mice; assay: Forced swim test in LPS-treated mice (improvement of depression); format: in vivo; conditions: forced swim test on Day 6; oral gavage 0.02 mL/10 g daily Days 1-5; LPS 1 mg/kg intraperitoneally Days 3, 4, 5; 10 mice per group
Experimental: (§1) The antidepressant effect of the composition was evaluated through the forced swim test in mice and measurement of oxidative stress levels in the cerebral cortex. Specific procedures were as follows:
(§2) Mice aged 8-9 weeks were selected as test subjects (10 mice per composition group for differential analysis and multiple comparisons; in differential analysis, * denoted p<0.05, ** p<0.01, *** p<0.001). The neural repair compositions prepared in the above examples and comparative examples were administered to mice via oral gavage. A positive control group treated with lipopolysaccharide (LPS) and a blank control group treated with physiological saline were included. From Days 1-5, mice were orally gavaged daily at the same time with 0.02 mL (normalized to body weight)/10 g of the compositions. On Days 3, 4, and 5, LPS (1 mg/kg) was intraperitoneally administered alongside the compositions. The positive control group differed by receiving only LPS (1 mg/kg) on Days 3, 4, and 5, while the blank control group received physiological saline throughout Days 1-5. On Day 6, behavioral tests (immobility time in the forced swim test, in s) and tissue sampling for oxidative stress assessment (reactive oxygen species absorption levels, expressed as absorbance) were conducted. The results are detailed in FIG. *to FIG. 2 and Tables 1-2.

[2] = system: reactive oxygen species; assay: Oxidative stress level (ROS) in the cerebral cortex of LPS-treated mice; format: in vivo; conditions: cerebral cortex sampled Day 6; oral gavage 0.02 mL/10 g daily Days 1-5; LPS 1 mg/kg intraperitoneally Days 3, 4, 5
Experimental: as §1, §2

lipopolysaccharide [LPS]
Immobility time of mice [1]: 230 ± 26 s
ROS absorption level [2]: 0.47 ± 0.10 absorbance
